In data set [1] the test system is 2a HCV RNA replicon. Briefly: 2a HCV RNA replicon assay (FL-J6/JFH-5'C19Rluc2AUbi, luciferase). The data set is classed as cell-based, Hepatitis C Virus genotype 2a. To be noted: Hepatitis C virus, read-out: 2a (%) Percent of virus activity remaining in the presence of the compound. The gist of the method: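 Huh7.5 cells electroporated with in vitro-transcribed FL-J6/JFH-5′C19Rluc2AUbi RNA (full-length genotype 2a, Renilla luciferase) and treated from 24 h, with compound refreshed daily for 72 h. Replication measured as Renilla luminescence, normalized to untreated or matched-DMSO samples. Alamar Blue fluorescence on the same wells assessed cytotoxicity.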

For data set [2], the system named is Huh7.5 cells. Briefly: Alamar Blue cell viability assay. The data set is classed as cell-based, human.
Data set [3] concerns HCV 1b RNA replicon. Briefly: 1b HCV RNA replicon assay, Huh7 cell line with stable luciferase reporter. It counts as cell-based, Hepatitis C Virus genotype 1b. The note with it: Hepatitis C virus, Huh-7; Huh7, stable LUC reporter.
Data set [4] concerns the target hERG (Homo sapiens, UniProt Q12809). Briefly: hERG IC50.

SMILES strings stand for the structures.

Sequence of hERG (Q12809 whole entry): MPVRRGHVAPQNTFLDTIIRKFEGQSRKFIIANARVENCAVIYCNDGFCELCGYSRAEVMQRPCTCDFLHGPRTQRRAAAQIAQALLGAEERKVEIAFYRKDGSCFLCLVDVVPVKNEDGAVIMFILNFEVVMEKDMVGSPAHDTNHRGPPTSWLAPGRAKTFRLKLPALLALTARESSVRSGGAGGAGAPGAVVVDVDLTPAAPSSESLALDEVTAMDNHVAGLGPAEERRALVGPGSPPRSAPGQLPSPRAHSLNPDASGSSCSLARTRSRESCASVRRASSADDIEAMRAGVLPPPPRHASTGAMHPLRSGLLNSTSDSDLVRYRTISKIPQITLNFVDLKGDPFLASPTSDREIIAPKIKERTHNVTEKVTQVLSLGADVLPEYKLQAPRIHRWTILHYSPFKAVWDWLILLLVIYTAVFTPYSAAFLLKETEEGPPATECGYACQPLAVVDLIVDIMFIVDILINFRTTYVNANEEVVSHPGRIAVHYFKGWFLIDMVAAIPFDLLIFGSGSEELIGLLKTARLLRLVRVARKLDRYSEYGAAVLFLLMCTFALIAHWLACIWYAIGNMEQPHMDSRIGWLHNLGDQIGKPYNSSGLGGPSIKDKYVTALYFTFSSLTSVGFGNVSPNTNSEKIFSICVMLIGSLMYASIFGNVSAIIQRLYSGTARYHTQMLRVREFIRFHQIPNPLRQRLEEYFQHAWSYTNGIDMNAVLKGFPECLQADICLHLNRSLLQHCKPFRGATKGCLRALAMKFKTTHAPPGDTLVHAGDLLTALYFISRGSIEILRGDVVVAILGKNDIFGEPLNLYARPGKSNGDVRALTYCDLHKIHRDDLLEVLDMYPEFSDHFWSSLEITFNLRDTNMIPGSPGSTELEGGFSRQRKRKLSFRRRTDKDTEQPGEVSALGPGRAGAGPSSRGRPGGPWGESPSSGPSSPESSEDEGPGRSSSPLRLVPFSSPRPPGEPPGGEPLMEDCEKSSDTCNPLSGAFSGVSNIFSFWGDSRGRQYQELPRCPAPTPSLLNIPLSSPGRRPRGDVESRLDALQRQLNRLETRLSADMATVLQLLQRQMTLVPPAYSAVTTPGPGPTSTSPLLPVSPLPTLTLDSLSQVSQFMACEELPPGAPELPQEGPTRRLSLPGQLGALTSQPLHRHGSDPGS

Take `CC(C)CN(C)c1nc(N)c(C(=O)NC2CCCNC2)nc1Cl.O=C(O)C(F)(F)F` (stereo not drawn) [ID 312, 3-amino-6-chloro-5-(isobutyl(methyl)amino)-N-(piperidin-3-yl)pyrazine-2-carboxamide 2,2,2-trifluoroacetate]: the activity at 5 µM in data set [1] amounted to 21%. Also, in data set [1], the activity at 10 µM was 9%. Also, the entries for the “Cell Viability (%), alamar blue” value in data set [2] (5 μM) and in data set [2] (10 μM) were 76% and 53%, respectively. Moreover, the figures for the IC50 in data set [3] and in data set [4] were 44 µM and 4 µM, respectively.

The record behind these values is patent US20110217265A1, “Screening for Inhibitors of HCV Amphipathic Helix (AH) Function” (priority 2008, published 2011).
